# From ChEMBL document CHEMBL1201861, “Genomics of Drug Sensitity in Cancer screening data, Wellcome Trust Sanger Institute”
# What was measured:
# Experiment in all cases: cells
# [1] = tested on: CTB-1; type: functional, cell-based, Homo sapiens; details: Homo sapiens, CTB-1
# [2] = tested on: Calu-6; type: functional, cell-based, Homo sapiens; details: Homo sapiens, Calu-6;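 further: growth of human Calu-6 cells, read out by a cell viability assay, IC50 marking inhibition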
# [3] = tested on: D-502MG; type: functional, cell-based, Homo sapiens; details: Homo sapiens, D-502MG
# [4] = tested on: DB; type: functional, cell-based, Homo sapiens; details: Homo sapiens, DB
# [5] = tested on: DEL; type: functional, cell-based, Homo sapiens; details: Homo sapiens, DEL;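 further: growth inhibition of the human DEL cell line, read out with a cell viability assay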
# [6] = tested on: EM-2; type: functional, cell-based, Homo sapiens; details: Homo sapiens, EM-2;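 further: growth inhibition of EM-2 cells, read out with a cell viability assay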
# [7] = tested on: ES5; type: functional, cell-based, Homo sapiens; details: Homo sapiens, ES5;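 further: growth inhibition of human ES5 cells, read out by a cell viability assay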
# [8] = tested on: ES6; type: functional, cell-based; details: Homo sapiens;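 further: growth inhibition of human ES6 cells, read out with a cell viability assay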
# [9] = tested on: ES8; type: functional, cell-based, Homo sapiens; details: Homo sapiens, ES8;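 further: growth inhibition of human ES8 cells, read out with a cell viability assay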
# [10] = tested on: EW-13; type: functional, cell-based, Homo sapiens; details: Homo sapiens, EW-13; read-out: IC50;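 further: growth inhibition of EW-13 cells, read out with a cell viability assay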
# [11] = tested on: GAK; type: functional, cell-based, Homo sapiens; details: Homo sapiens, GAK;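 further: cell growth inhibition read out by a cell viability assay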
# [12] = tested on: HDLM-2; type: functional, cell-based, Homo sapiens; details: Homo sapiens, HDLM-2;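 further: cell viability assay measuring suppression of HDLM-2 proliferation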
# [13] = tested on: HT-144; type: functional, cell-based, Homo sapiens; details: Homo sapiens, HT-144
# [14] = tested on: IST-MEL1; type: functional, cell-based, Homo sapiens; details: Homo sapiens, IST-MEL1;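 further: growth inhibition of the cell line, read out with a cell viability assay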
# [15] = tested on: K5; type: functional, cell-based, Homo sapiens; details: Homo sapiens, K5
# [16] = tested on: L-428; type: functional, cell-based, Homo sapiens; details: Homo sapiens, L-428
# [17] = tested on: LB2518-MEL; type: functional, cell-based; details: Homo sapiens;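 further: growth inhibition of human LB2518-MEL cells, measured with a cell viability assay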
# [18] = tested on: LB831-BLC; type: functional, cell-based, Homo sapiens; details: Homo sapiens, LB831-BLC;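 further: growth inhibition of LB831-BLC cells, read out with a cell viability assay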
# [19] = tested on: LB996-RCC; type: functional, cell-based, Homo sapiens; details: Homo sapiens, LB996-RCC
# [20] = tested on: LS-123; type: functional, cell-based, Homo sapiens; details: Homo sapiens, LS-123
# [21] = tested on: LXF-289 cell line; type: functional, cell-based; details: Homo sapiens
# [22] = tested on: MEG-01; type: functional, cell-based, Homo sapiens; details: Homo sapiens, MEG-01;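 further: growth inhibition of MEG-01 cells, read out by a cell viability assay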
# [23] = tested on: MHH-NB-11; type: functional, cell-based, Homo sapiens; details: Homo sapiens, MHH-NB-11;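 further: growth inhibition of human MHH-NB-11 cells, read out by a cell viability assay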
# [24] = tested on: ML-2; type: functional, cell-based, Homo sapiens; details: Homo sapiens, ML-2;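 further: growth inhibition of ML-2 cells, measured with a cell viability readout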
# [25] = tested on: MOLT-4; type: functional, cell-based, Homo sapiens; details: Homo sapiens, MOLT-4;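 further: growth inhibition of MOLT-4 cells, determined with a cell viability readout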
# [26] = tested on: MS-1; type: functional, cell-based, Homo sapiens; details: Homo sapiens, MS-1;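 further: growth inhibition of MS-1 cells, read out by cell viability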
# [27] = tested on: NB13; type: functional, cell-based, Homo sapiens; details: Homo sapiens, NB13;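 further: cell viability readout measuring growth inhibition of human NB13 cells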
# [28] = tested on: NB69; type: functional, cell-based, Homo sapiens; details: Homo sapiens, NB69;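 further: growth inhibition of NB69 cells, determined by a cell viability assay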
# [29] = tested on: NCI-H209; type: functional, cell-based, Homo sapiens; details: Homo sapiens, NCI-H209;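 further: growth inhibition of human NCI-H209 cells, measured by a cell viability assay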
# [30] = tested on: NCI-H82; type: functional, cell-based, Homo sapiens; details: Homo sapiens, NCI-H82;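 further: growth inhibition of NCI-H82 cells, measured with a cell viability readout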
# [31] = tested on: NMC-G1; type: functional, cell-based, Homo sapiens; details: Homo sapiens, NMC-G1;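 further: growth inhibition of the NMC-G1 cell line, measured with a cell viability read-out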
# [32] = tested on: NTERA-2-cl-D1; type: functional, cell-based, Homo sapiens; details: Homo sapiens, NTERA-2-cl-D1;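 further: inhibition of cell growth, measured with a cell viability assay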
# [33] = tested on: Ramos-2G6-4C10; type: functional, cell-based, Homo sapiens; details: Homo sapiens, Ramos-2G6-4C10;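 further: growth inhibition of the cell line, measured by a cell viability read-out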
# [34] = tested on: SF-539; type: functional, cell-based, Homo sapiens; details: Homo sapiens, SF-539;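 further: Read-out is a cell viability assay, with IC50 reflecting inhibition of cell growth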
# [35] = tested on: SHP77; type: functional, cell-based, Homo sapiens, SHP-77; details: Homo sapiens, SHP77;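 further: growth inhibition of human SHP-77 cells measured by a cell viability assay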
# [36] = tested on: SJSA-1; type: functional, cell-based, Homo sapiens; details: Homo sapiens, SJSA-1;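 further: growth inhibition of human SJSA-1 cells, read out through a cell viability measurement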
# [37] = tested on: SK-LMS-1; type: functional, cell-based, Homo sapiens; details: Homo sapiens, SK-LMS-1;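 further: growth inhibition of human SK-LMS-1 cells, read out with a cell viability assay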
# [38] = tested on: SNB-75; type: functional, cell-based, Homo sapiens; details: Homo sapiens, SNB-75;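 further: cell viability assay measuring growth inhibition of human SNB-75 cells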
# [39] = tested on: SW684; type: functional, cell-based, Homo sapiens; details: Homo sapiens, SW684; read-out: IC50;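 further: growth inhibition of human SW684 cells, measured by a cell viability assay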
# [40] = tested on: SW 954; type: functional, cell-based, Homo sapiens; details: Homo sapiens, SW 954;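 further: growth inhibition of SW954 human cancer cells, read out as cell viability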
# [41] = tested on: SW982; type: functional, cell-based; details: Homo sapiens;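 further: growth inhibition of SW982 cells, read out with a cell viability assay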
# [42] = tested on: TE-1; type: functional, cell-based, Homo sapiens; details: Homo sapiens, TE-1;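 further: growth inhibition of the human TE-1 cell line, read out with a cell viability assay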
# [43] = tested on: A3-KAW; type: functional, cell-based, Homo sapiens; details: Homo sapiens, A3-KAW;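 further: growth inhibition of human A3-KAW cells, read out with a cell viability assay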
# [44] = tested on: A388; type: functional, cell-based; details: Homo sapiens;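 further: growth inhibition of human A388 cells, read out with a cell viability assay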
# [45] = tested on: A704; type: functional, cell-based; details: Homo sapiens;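 further: growth inhibition of human A704 cells, read out with a cell viability assay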
# [46] = tested on: AM-38; type: functional, cell-based, Homo sapiens; details: Homo sapiens, AM-38;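 further: growth inhibition of AM-38 cells of human origin, read out by a cell viability assay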
# [47] = tested on: Becker; type: functional, cell-based, Homo sapiens; details: Homo sapiens, Becker;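 further: growth inhibition of Becker cells, read out with a cell viability assay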
# [48] = tested on: TE-6; type: functional, cell-based, Homo sapiens; details: Homo sapiens, TE-6;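 further: growth inhibition of TE-6 cells, read out with a cell viability assay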
# [49] = tested on: TE-9; type: functional, cell-based, Homo sapiens; details: Homo sapiens, TE-9;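 further: cell growth inhibition, measured with a cell viability readout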
# [50] = tested on: TGW; type: functional, cell-based, Homo sapiens; details: Homo sapiens, TGW;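 further: growth inhibition of human TGW cells, read out with a cell viability assay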
# [51] = tested on: TK-10; type: functional, cell-based, Homo sapiens; details: Homo sapiens, TK-10;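 further: growth inhibition of TK-10 cells, read out in a cell viability assay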
smiles,measurement,setting,value
COc1ccc(N(C(=O)Oc2c(C)cccc2C)c2ccnc(Nc3ccc(N4CCN(C)CC4)cc3)n2)c(OC)c1,IC50,[1],> 5120 nM
same,IC50,[2],> 5120 nM
same,IC50,[3],> 5120 nM
same,IC50,[4],> 5120 nM
same,IC50,[5],> 5120 nM
same,IC50,[6],< 20 nM
same,IC50,[7],> 5120 nM
same,IC50,[8],2050 nM
same,IC50,[9],> 5120 nM
same,IC50,[10],> 5120 nM
same,IC50,[11],> 5120 nM
same,IC50,[12],> 5120 nM
same,IC50,[13],1450 nM
same,IC50,[14],> 5120 nM
same,IC50,[15],> 5120 nM
same,IC50,[16],> 5120 nM
same,IC50,[17],46.7 nM
same,IC50,[18],127 nM
same,IC50,[19],56.7 nM
same,IC50,[20],4360 nM
same,IC50,[21],1270 nM
same,IC50,[22],< 20 nM
same,IC50,[23],> 5120 nM
same,IC50,[24],> 5120 nM
same,IC50,[25],> 5120 nM
same,IC50,[26],> 5120 nM
same,IC50,[27],> 5120 nM
same,IC50,[28],> 5120 nM
same,IC50,[29],> 5120 nM
same,IC50,[30],> 5120 nM
same,IC50,[31],> 5120 nM
same,IC50,[32],289 nM
same,IC50,[33],> 5120 nM
same,IC50,[34],> 5120 nM
same,IC50,[35],> 5120 nM
same,IC50,[36],> 5120 nM
same,IC50,[37],> 5120 nM
same,IC50,[38],358 nM
same,IC50,[39],326 nM
same,IC50,[40],372 nM
same,IC50,[41],858 nM
same,IC50,[42],> 5120 nM
same,IC50,[43],> 5120 nM
same,IC50,[44],> 5120 nM
same,IC50,[45],< 20 nM
same,IC50,[46],> 5120 nM
same,IC50,[47],63.8 nM
same,IC50,[48],> 5120 nM
same,IC50,[49],4390 nM
same,IC50,[50],> 5120 nM
same,IC50,[51],1080 nM
Cc1ccc(C(=O)Nc2ccc(CN3CCN(C)CC3)c(C(F)(F)F)c2)cc1C#Cc1cnc2cccnn12 [PONATINIB],IC50,[1],173 nM
same,IC50,[2],> 512 nM
same,IC50,[3],> 512 nM
same,IC50,[4],> 512 nM
same,IC50,[5],> 512 nM
same,IC50,[7],> 512 nM
same,IC50,[8],> 512 nM
same,IC50,[9],> 512 nM
same,IC50,[10],> 512 nM
same,IC50,[12],> 512 nM
same,IC50,[13],313 nM
same,IC50,[14],> 512 nM
same,IC50,[15],> 512 nM
same,IC50,[16],> 512 nM
same,IC50,[17],> 512 nM
same,IC50,[18],> 512 nM
same,IC50,[19],> 512 nM
same,IC50,[20],> 512 nM
same,IC50,[21],> 512 nM
same,IC50,[22],< 2 nM
same,IC50,[23],> 512 nM
same,IC50,[24],> 512 nM
same,IC50,[25],> 512 nM
same,IC50,[26],> 512 nM
same,IC50,[27],> 512 nM
same,IC50,[28],> 512 nM
same,IC50,[29],> 512 nM
same,IC50,[30],> 512 nM
same,IC50,[31],> 512 nM
same,IC50,[32],> 512 nM
same,IC50,[33],> 512 nM
same,IC50,[34],> 512 nM
same,IC50,[35],> 512 nM
same,IC50,[36],> 512 nM
same,IC50,[37],> 512 nM
same,IC50,[38],> 512 nM
same,IC50,[39],> 512 nM
same,IC50,[40],> 512 nM
same,IC50,[41],300 nM
same,IC50,[42],> 512 nM
same,IC50,[43],> 512 nM
same,IC50,[44],> 512 nM
same,IC50,[45],> 512 nM
same,IC50,[46],> 512 nM
same,IC50,[47],> 512 nM
same,IC50,[48],> 512 nM
same,IC50,[49],> 512 nM
same,IC50,[50],> 512 nM
same,IC50,[51],> 512 nM
